The values that follow come from patent US20050288347A1, “Certain triazole-based compounds, compositions, and uses thereof” (priority 2004, published 2005).

“Also recorded” adds a separate entry of the source.

For the first experiment, the target named is protein kinase. The experiment is described as follows: HTS ATP-utilizing enzyme assay, off-chip mobility-shift format (Caliper HTS 250). In kind it is biochemical, human.
Conditions: not given
In a few lines:
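Single-point screen at 10 μM compound in HEPES pH 7.5 buffer with Triton X-100 and BSA, 2.5 h at 20–22 °C. Substrate-to-phosphopeptide ratio measured by off-chip microfluidic mobility shift; EDTA wells as 100% and DMSO wells as 0% control, hits called at three-sigma limits.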
Turning to `Cn1c(SCC(=O)NCc2ccc3c(c2)OCO3)nnc1-c1cc2ccccc2cc1O`, the Kinase entry is on record as “CSK”.

The same experiment, now with this note: kinase(s) for which the compound exhibits protein kinase inhibitory activity; test compound 10 μM; active = greater than three-sigma from the mean activity of inactive compounds.
As to `CCOc1ccc(NCc2nnc(S)n2-c2ccc(OC)cc2)cc1`, the Kinase entry is reported as “FLT-3; also recorded: PDGFRR-α; also recorded: AURORA-A”.
Same read-out and setting: to `Cc1ccc(-c2nnc(SCC(=O)O)n2-c2ccc(C)cc2)cc1` [2-(4,5-dip-tolyl-4H-1,2,4-triazol-3-ylthio)acetic acid] belongs “DAPK1”.
The same measure, in the same setting: then `COc1ccc(NCc2nnc(SCC(=O)Nc3cccc(Cl)c3)n2-c2ccc(C)cc2)cc1`, with “PDGFRR-α and FYN and AURORA-A”; and `Cc1cc(C)nc(SCc2nnc(SCC(=O)Nc3cccc(C(F)(F)F)c3)n2C)n1`, with “CDK1”; and `CCOC(=O)CSc1nnc(CSc2nc3ccccc3s2)n1C`, with “CSK”.
In the case of `COc1ccc(-c2nnc(SCC#N)[nH]2)cc1` [2-(5-(4-methoxyphenyl)-4H-1,2,4-triazol-3-ylthio)acetonitrile], the Kinase entry is “FLT-3; also recorded: DYRK2; also recorded: AURORA-A”.
Same read-out and setting: to `O=C(CSc1nnc(-c2ccc(O)cc2)n1Cc1ccco1)N1CCc2ccccc21` belongs “AURORA-A”; to `Cn1c(CNc2nc(-c3ccccc3)cs2)nnc1SCC(=O)NCc1ccccc1`, “PDGFRR-α and PKA”; to `CCn1c(CSc2nc(C)cc(C)n2)nnc1SCC(=O)Nc1nccs1`, “GSK3-α”.
Same read-out and setting: then `CCOc1ccc2nc(NC(=O)CSc3nnc(-c4ccncc4)n3CC3CCCO3)sc2c1` (stereo not shown), with “PDGFRR-α and GSK3-α and ABL1”.
In the case of `Cc1nnc(SCC(=O)N2CCCc3ccccc32)n1-c1ccccc1`, the Kinase entry is recorded as “c-TAK1”.
In the case of `Cc1ccc(-n2c(S)nnc2CNc2cccc(Cl)c2)cc1` [5-((3-chlorophenylamino)methyl)-4-p-tolyl-4H-1,2,4-triazole-3-thiol], the Kinase result was “GSK3-β; also recorded: GSK3-α”.
`O=C(CSc1nnc(CNc2cccc(Cl)c2)n1CCc1ccccc1)NC1CCCCC1`: the Kinase entry was “CDK2-cyclinE”.
Same read-out and setting: to `Cc1cc(NC(=O)CSc2nnc(-c3cc4ccccc4cc3O)n2C)no1` belongs “AURORA-A and FYN”; to `N#CCSc1nnc(-c2cccnc2)n1-c1ccccc1` [2-(4-phenyl-5-(pyridin-3-yl)-4H-1,2,4-triazol-3-ylthio)acetonitrile], “AURORA-A”; to `COc1ccc(-n2c(S)nnc2CNc2ccc(C)cc2)cc1` [5-((p-toluidino)methyl)-4-(4-methoxyphenyl)-4H-1,2,4-triazole-3-thiol], “AURORA-A; also recorded: PDGFRR-α; also recorded: GSK3-β”.
Same read-out and setting: then `Cc1ccc(NCc2nnc(S)n2-c2cccc(Cl)c2)cc1` [5-((p-toluidino)methyl)-4-(3-chlorophenyl)-4H-1,2,4-triazole-3-thiol], with “CDK2-cyclinA; also recorded: GSK3-α”; and `Cc1ccc(-n2c(S)nnc2CCc2nc3ccccc3[nH]2)cc1` [5-(2-(1H-benzo[d]imidazol-2-yl)ethyl)-4-p-tolyl-4H-1,2,4-triazole-3-thiol], with “GSK3-α; also recorded: GSK3-β”; and `CCOC(=O)CSc1nnc(-c2ccco2)n1-c1ccc(C)cc1` [ethyl 2-(5-(furan-2-yl)-4-p-tolyl-4H-1,2,4-triazol-3-ylthio)acetate], with “PAK2”.
Still for that read-out and setting: then `O=C(O)CSc1nnc(CNc2cccc(C(F)(F)F)c2)n1Cc1ccco1`, with “SRC and AURORA-A”.
As for `Oc1ccc(-c2nnc(S)n2-c2ccccc2)cc1` [4-(5-mercapto-4-phenyl-4H-1,2,4-triazol-3-yl)phenol], the Kinase result was “CDK5 and GSK3-α and CDK2-cyclinA”.
Still for that read-out and setting: then `Cn1c(SCC(=O)O)nnc1-c1ccc(O)cc1` [2-(5-(4-hydroxyphenyl)-4-methyl-4H-1,2,4-triazol-3-ylthio)acetic acid], with “GSK3-β; also recorded: MAPKAPK-2”; and `CCOc1ccc(NCc2nnc(SCC(N)=O)n2-c2ccccc2)cc1`, with “FYN and PDGFRR-α and FLT-3”; and `COc1cccc(OC(=O)CSc2nnc(CNc3c(C)cccc3C)n2-c2ccccc2)c1`, with “C-TAK1”.
Same read-out and setting: to `Cc1ccc(NCc2nnc(SCC#N)n2-c2ccccc2)cc1Cl` belongs “AURORA-A”; to `O=C(CSc1nnc(COc2ccc(Cl)cc2)[nH]1)c1ccccc1` [2-(5-((4-chlorophenoxy)methyl)-4H-1,2,4-triazol-3-ylthio)-1-phenylethanone], “GSK3-α; also recorded: FLT-3; also recorded: GSK3-β”; to `COc1ccccc1OCc1nnc(S)n1Cc1ccccc1` [4-benzyl-5-((2-methoxyphenoxy)methyl)-4H-1,2,4-triazole-3-thiol], “AURORA-A”.

Staying with this experiment, now noted: test compound 10 μM; active = activity greater than three-sigma from the mean of the predominately inactive population for that enzyme.
Regarding `CCOc1ccc(NCc2nnc(SCCN3CCCCC3)n2-c2ccc(C)cc2)cc1`, the “protein kinase against which the compound exhibits inhibitory activity (Table 3)” value is “FYN and PDGFRR-α”.
Same read-out and setting: to `COc1ccc(C(=O)NNC(=O)CSc2nnc(C)n2CC2CCCO2)cc1` (stereo not shown) belongs “SYK”; to `Cn1c(SCc2ccccn2)nnc1-c1ccc(O)cc1` [4-(4-methyl-5-(pyridin-2-ylmethylthio)-4H-1,2,4-triazol-3-yl)phenol], “GSK3-β; also recorded: GSK3-α”; to `CCC(c1ccccc1)c1nnc(SCc2cccc3ccccc23)[nH]1` (stereo not shown) [3-(naphthalen-1-ylmethylthio)-5-(1-phenylpropyl)-4H-1,2,4-triazole], “AURORA-A”.
Same read-out and setting: then `CC(=O)c1ccc(-n2c(SCCCCc3ccccc3)nnc2-c2cccc(Cl)c2)cc1`, with “INSR”.
On the same count and under the same terms, then `COc1ccc(NCc2nnc(SCCCC3CCCCC3)n2C)cc1`, with “PDGFRR-α and FYN and FLT-3”; and `COc1ccc(-c2nnc(SCc3ccccc3C#N)[nH]2)cc1` [2-((5-(4-methoxyphenyl)-4H-1,2,4-triazol-3-ylthio)methyl)benzonitrile], with “AURORA-A; also recorded: CHEK2; also recorded: GSK3-α”.
With `COCCCn1c(SCc2ccccc2Cl)nnc1-c1ccc(C(C)(C)C)cc1`, the “protein kinase against which the compound exhibits inhibitory activity (Table 3)” value is recorded as “CDK1”.
Regarding `Cn1c(SCC(=O)NN(Br)C(=O)c2ccccc2)nnc1C1CCCCC1`, the “protein kinase against which the compound exhibits inhibitory activity (Table 3)” value is reported as “SGK1”.
The same measure, in the same setting: then `CCOc1ccc2nc(-c3ccc(OC)cc3)cc(-c3nnc(SCc4ccc(F)cc4F)n3C)c2c1`, with “CHEK2”; and `Cc1ccc(NCc2nnc(SCc3nnc(-c4ccccc4)o3)n2CC2CCCO2)c(C)c1` (stereo not shown), with “SYK”; and `FC(F)(F)Oc1ccc(-c2nnc(SCc3ccncc3)[nH]2)cc1` [4-((5-(4-(trifluoromethoxy)phenyl)-4H-1,2,4-triazol-3-ylthio)methyl)pyridine], with “FLT-3; also recorded: c-TAK1; also recorded: GSK3-β”.
`CCOCCSc1nnc(-c2ccccc2)[nH]1` [3-(2-ethoxyethylthio)-5-phenyl-4H-1,2,4-triazole]: the “protein kinase against which the compound exhibits inhibitory activity (Table 3)” value is 3-(2-ethoxyethylthio)-5-phenyl-4H-1,2,4-triazole AURORA-A and FLT-3 and DYRK2.
Still for that read-out and setting: to `CCn1c(COc2cccc3ccccc23)nnc1SCC(C)C` [4-ethyl-3-(isobutylthio)-5-((naphthalen-1-yloxy)methyl)-4H-1,2,4-triazole] belongs “c-TAK1 and CDK1”; to `O=C(CSc1nnc(-c2ccncc2)n1-c1ccc(F)cc1)NN(O)C(=O)c1ccccc1`, “FYN”.
